In US12466827B2, “1,3,4-oxadiazole derivative compounds as histone deacetylase 6 inhibitor, and the pharmaceutical composition comprising the same” (CHONG KUN DANG PHARMACEUTICAL CORP., priority 2020, dated 2025):

Experiments:
[1] = biological target: T1, human recombinant HDAC1 (Homo sapiens, UniProt Q13547); experiment: In vitro HDAC enzyme activity inhibition assay (HDAC1); assay type: biochemical; settings: Fluor de Lys-SIRT1 substrate 10 μM, 30° C., 60 minutes, fluorescence
T1 construct: purchased Enzo Life Sciences, Inc. BML-SE456
Method: (§1) In order to confirm the selectivity of the compounds represented by Chemical Formula I of the present invention to HDAC6 through HDAC1 and HDAC6 enzyme activity inhibition experiments, a comparison experiment was performed using the material that has already been developed as a control group.
(§2) HDAC enzyme activity was measured using the HDAC Fluorimetric Drug Discovery Kit (Enzo Life Sciences, Inc., BML-AK511, 516). For the HDAC1 enzyme activity test, human recombinant HDAC1 (BML-SE456) was used as an enzyme source and Fluor de Lys-SIRT1 (BNL-KI177) was used as a substrate. After dispensing 5-fold diluted compounds into a 96-well plate, 0.3 μg of enzyme and 10 μM substrate were added to each well of the plate and allowed to react at 30° C. for 60 minutes. Next, Fluor de Lys Developer II (BML-KI176) was added and reacted for 30 minutes to complete the reaction, and then the fluorescence values (Ex 360, Em 460) were measured using a multi-plate reader (Flexstation 3, Molecular Device). The HDAC6 enzymes were tested using human recombinant HDAC6 (382180) from Calbiochem Inc., according to the same protocol as the HDAC1 enzyme activity test method. With respect to the final result values, respective IC50 values were calculated using GraphPad Prism 4.0 program, and results thereof were summarized in Table 4 below.

[2] = biological target: T2, human recombinant HDAC6 (Homo sapiens, UniProt Q9UBN7); experiment: In vitro HDAC enzyme activity inhibition assay (HDAC6); assay type: biochemical; settings: for HDAC6 selectivity (fold): HDAC6 over HDAC1; for IC50: same protocol as the HDAC1 test, human recombinant HDAC6 (Calbiochem)
T2 construct: purchased Calbiochem Inc. 382180
T2 sequence (Q9UBN7 1-1215): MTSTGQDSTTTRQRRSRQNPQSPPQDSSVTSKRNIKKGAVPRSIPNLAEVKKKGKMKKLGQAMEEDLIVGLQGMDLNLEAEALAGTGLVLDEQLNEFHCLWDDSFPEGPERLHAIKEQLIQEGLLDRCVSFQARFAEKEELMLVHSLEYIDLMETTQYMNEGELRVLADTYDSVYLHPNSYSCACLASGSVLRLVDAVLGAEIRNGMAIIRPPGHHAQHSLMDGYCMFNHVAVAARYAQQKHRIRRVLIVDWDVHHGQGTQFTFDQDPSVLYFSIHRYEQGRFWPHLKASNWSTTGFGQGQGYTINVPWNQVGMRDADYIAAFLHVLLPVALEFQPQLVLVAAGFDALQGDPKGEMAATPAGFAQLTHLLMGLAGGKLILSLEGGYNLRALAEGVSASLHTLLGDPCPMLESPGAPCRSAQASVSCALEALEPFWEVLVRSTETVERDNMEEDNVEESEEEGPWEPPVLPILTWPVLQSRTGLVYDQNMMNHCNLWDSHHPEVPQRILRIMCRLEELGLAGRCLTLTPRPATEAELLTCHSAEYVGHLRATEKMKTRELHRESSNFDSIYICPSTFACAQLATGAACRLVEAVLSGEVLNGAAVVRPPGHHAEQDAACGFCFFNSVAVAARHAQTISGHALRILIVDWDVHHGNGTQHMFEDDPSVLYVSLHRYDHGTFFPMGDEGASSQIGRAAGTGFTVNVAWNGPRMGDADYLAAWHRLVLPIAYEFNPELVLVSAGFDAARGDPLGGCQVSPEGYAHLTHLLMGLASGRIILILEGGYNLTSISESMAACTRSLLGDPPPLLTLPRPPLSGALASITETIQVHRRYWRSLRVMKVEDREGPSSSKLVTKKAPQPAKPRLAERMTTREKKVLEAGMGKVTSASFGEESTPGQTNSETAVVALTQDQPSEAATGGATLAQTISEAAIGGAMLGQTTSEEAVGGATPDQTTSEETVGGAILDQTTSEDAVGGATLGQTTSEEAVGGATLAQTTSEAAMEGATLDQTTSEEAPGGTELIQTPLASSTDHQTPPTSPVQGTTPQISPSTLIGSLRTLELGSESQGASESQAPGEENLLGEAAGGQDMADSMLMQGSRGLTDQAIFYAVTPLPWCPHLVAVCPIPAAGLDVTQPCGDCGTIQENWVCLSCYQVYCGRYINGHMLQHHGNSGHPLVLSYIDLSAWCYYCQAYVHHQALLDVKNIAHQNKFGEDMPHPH
Method: as §1, §2

T1 sequence (Q13547 whole entry): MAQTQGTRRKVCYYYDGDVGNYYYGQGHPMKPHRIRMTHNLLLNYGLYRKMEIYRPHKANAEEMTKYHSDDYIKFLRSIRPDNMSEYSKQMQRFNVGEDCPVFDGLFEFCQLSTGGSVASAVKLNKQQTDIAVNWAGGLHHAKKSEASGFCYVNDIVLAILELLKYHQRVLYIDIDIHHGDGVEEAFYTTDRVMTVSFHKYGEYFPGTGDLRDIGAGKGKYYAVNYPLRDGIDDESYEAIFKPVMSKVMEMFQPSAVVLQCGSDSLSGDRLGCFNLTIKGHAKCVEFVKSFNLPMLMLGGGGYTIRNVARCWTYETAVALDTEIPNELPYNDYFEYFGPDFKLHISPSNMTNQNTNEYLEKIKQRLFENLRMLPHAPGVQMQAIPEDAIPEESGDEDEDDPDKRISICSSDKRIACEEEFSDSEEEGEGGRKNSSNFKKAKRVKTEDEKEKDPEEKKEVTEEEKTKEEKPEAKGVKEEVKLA

SMILES	IC50 [1]	HDAC6 selectivity (fold) [2]	IC50 [2]
CN1CCC(S(=O)(=O)N(Cc2cn3ccc(-c4nnc(C(F)F)o4)cc3n2)c2ccccc2)CC1 [Compound 3778, N-((7-(5-(difluoromethyl)-1,3,4-oxadiazol-2-yl)imidazo[1,2-a]pyridin-2-yl)methyl)-1-methyl-N-phenylpiperidine-4-sulfonamide]	> 50000 nM	549 fold	91 nM
O=S(=O)(C1CCN(C2COC2)CC1)N(Cc1cn2ccc(-c3nnc(C(F)F)o3)cc2n1)c1ccccc1 [Compound 3779, N-((7-(5-(difluoromethyl)-1,3,4-oxadiazol-2-yl)imidazo[1,2-a]pyridin-2-yl)methyl)-1-(oxetan-3-yl)-N-phenylpiperidine-4-sulfonamide]	> 50000 nM	321 fold	156 nM
CCN1CCC(S(=O)(=O)N(Cc2cn3ccc(-c4nnc(C(F)F)o4)cc3n2)c2ccccc2)CC1 [Compound 4214, N-((7-(5-(difluoromethyl)-1,3,4-oxadiazol-2-yl)imidazo[1,2-a]pyridin-2-yl)methyl)-1-ethyl-N-phenylpiperidine-4-sulfonamide]	> 50000 nM	278 fold	180 nM
CC(C)N1CCC(S(=O)(=O)N(Cc2cn3ccc(-c4nnc(C(F)F)o4)cc3n2)c2ccccc2)CC1 [Compound 4215, N-((7-(5-(difluoromethyl)-1,3,4-oxadiazol-2-yl)imidazo[1,2-a]pyridin-2-yl)methyl)-1-isopropyl-N-phenylpiperidine-4-sulfonamide]	> 50000 nM	275 fold	182 nM
CC(CO)N1CCC(S(=O)(=O)N(Cc2cn3ccc(-c4nnc(C(F)F)o4)cc3n2)c2ccccc2)CC1 (stereo not drawn) [Compound 4216, N-((7-(5-(difluoromethyl)-1,3,4-oxadiazol-2-yl)imidazo[1,2-a]pyridin-2-yl)methyl)-1-(1-hydroxypropan-2-yl)-N-phenylpiperidine-4-sulfonamide]	> 50000 nM	420 fold	119 nM
O=S(=O)(C1CCN(C2CCC2)CC1)N(Cc1cn2ccc(-c3nnc(C(F)F)o3)cc2n1)c1ccccc1 [Compound 4217, 1-cyclobutyl-N-((7-(5-(difluoromethyl)-1,3,4-oxadiazol-2-yl)imidazo[1,2-a]pyridin-2-yl)methyl)-N-phenylpiperidine-4-sulfonamide]	> 50000 nM	410 fold	122 nM
O=S(=O)(C1CCN(C2CCCCC2)CC1)N(Cc1cn2ccc(-c3nnc(C(F)F)o3)cc2n1)c1ccccc1 [Compound 4218, 1-cyclohexyl-N-((7-(5-(difluoromethyl)-1,3,4-oxadiazol-2-yl)imidazo[1,2-a]pyridin-2-yl)methyl)-N-phenylpiperidine-4-sulfonamide]	> 50000 nM	433 fold	116 nM
O=S(=O)(C1CCN(C2CCOCC2)CC1)N(Cc1cn2ccc(-c3nnc(C(F)F)o3)cc2n1)c1ccccc1 [Compound 4219, N-((7-(5-(difluoromethyl)-1,3,4-oxadiazol-2-yl)imidazo[1,2-a]pyridin-2-yl)methyl)-N-phenyl-1-(tetrahydro-2H-pyran-4-yl)piperidine-4-sulfonamide]	> 50000 nM	482 fold	104 nM
O=S(=O)(C1CCN(C2CCC(F)(F)CC2)CC1)N(Cc1cn2ccc(-c3nnc(C(F)F)o3)cc2n1)c1ccccc1 [Compound 4220, 1-(4,4-difluorocyclohexyl)-N-((7-(5-(difluoromethyl)-1,3,4-oxadiazol-2-yl)imidazo[1,2-a]pyridin-2-yl)methyl)-N-phenylpiperidine-4-sulfonamide]	> 50000 nM	320 fold	156 nM
CC(=O)N1CCC(S(=O)(=O)N(Cc2cn3ccc(-c4nnc(C(F)F)o4)cc3n2)c2ccccc2)CC1 [Compound 4221, 1-acetyl-N-((7-(5-(difluoromethyl)-1,3,4-oxadiazol-2-yl)imidazo[1,2-a]pyridin-2-yl)methyl)-N-phenylpiperidine-4-sulfonamide]	> 50000 nM	364 fold	137 nM
